Data from US20150328329A1, “LIGANDS THAT TARGET HCV-E2 BINDING SITES ON CD81 AND THERAPEUTIC METHODS USING THEM” (American University of Cairo, priority 2012, published 2015).

Columns and labels:
[1] = biological target: T1, recombinant CD81-LEL (Homo sapiens, UniProt P60033); experiment: Dual polarization interferometry (DPI) binding of ligands to immobilized recombinant CD81-LEL; conditions: for DPI Response (Radians), ligand added to CD81 protein: Table B and b111; for DPI Response (Radians), ligand added to CD81 protein / DPI Radians: ligand 500 μM in PBS, 2.5% DMSO; for DPI Binding Response (Radians), molecule added alone to CD81: Table D, single molecule added to CD81; for DPI Radians: Table A
T1 construct: the large extracellular loop of CD81 (CD81-LEL); GST; His; Shoshana Levy Lab, Stanford (gift)
T1 sequence (P60033 113-201 limits assumed): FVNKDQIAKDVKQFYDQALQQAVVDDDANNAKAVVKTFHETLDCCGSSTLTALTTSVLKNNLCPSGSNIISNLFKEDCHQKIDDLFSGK
Description: DPI analyses were performed using an AnaLight 4D workstation (Farfield Group, Manchester UK). The recombinant CD81-LEL was immobilized onto a Thiol AnaChip using Sulfo-GMBS as a cross-linker in PBS running buffer. Non-specific sites were blocked with digested casein. TRIS was used to cap the cross-linker, blocking any additional amines from covalently binding to the cross-linker on the chip surface. Ligands were prepared as a 20 mM stock solutions in DMSO. Each ligand was diluted to a final concentration of 500 μM in PBS just prior to injection (final DMSO concentration was 2.5%). PBS and DMSO mixed in the same ratio were used as a blank. Data collection and analysis were performed using the AnaLight Resolver.
Six of the more interesting ligand candidates being considered for use in creating a ligand conjugate (three calculated to bind to Site 1 and three calculated to bind to Site 2) were further tested to confirm binding using a second experimental technique, dual polarization interferometry. The results, shown in FIG. 6, confirmed that all six ligands bound to the protein. The relative rank in strength of binding of the Site 1 and 2 ligands, as determined by DPI, were also similar to the ranking obtained by SPR or calculated by AutoDock for the majority of the ligands. […] One reason for this observed difference in the DPI response may relate to conformational changes in the protein that occur when the small molecules bind. The change in radians measured using DPI when a ligand binds to a protein is known to result from a combination of two effects: 1) the resulting increase in mass/volume when the ligand binds to the protein on the surface of the chip and 2) a conformational change in the protein induced by the binding of the ligand. Molecules binding in the deeper cavity would be expected to have more and stronger contacts with the protein than ligands sitting exposed to solvent in shallow cavities or surface binding sites. […]

[2] = biological target: T2, recombinant CD81-LEL (GST tag) (Homo sapiens, UniProt P60033); experiment: Surface plasmon resonance (Biacore T200) binding of ligands to immobilized recombinant CD81-LEL; conditions: Table A; ligand 600 μM in PBS-0.05% Tween-80; CD81-LEL-GST on CM5 chip
T2 construct: the large extracellular loop of CD81 (CD81-LEL); gift of Dr. Shoshana Levy, Stanford University
T2 sequence (P60033 113-201 limits assumed): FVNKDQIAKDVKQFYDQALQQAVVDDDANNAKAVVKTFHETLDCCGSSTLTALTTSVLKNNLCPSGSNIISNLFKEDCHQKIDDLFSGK
Description: SPR analysis was performed using a Biacore T200 workstation (GE Healthcare, NJ, USA). A recombinant form of the CD81-LEL protein with a GST tag (generously provided by Dr. Shoshana Levy, Stanford University) was used to confirm, using an established experimental technique, the binding of several ligands to the protein. Briefly, 10 μM CD81-LEL-GST diluted into 10 mM Na-Acetate buffer pH 4.5 was immobilized for 15 min at a flow speed of 5 μl/min onto a CM5 sensor chip using amine-coupling (EDC-NHS). Approximately 20,000 RU of protein were immobilized on the chip. The ligands were prepared as 600 μM solutions in PBS-0.05% Tween-80 (the running buffer) and they were introduced to the protein using a pre-programmed 3 minute association and 1 minute dissociation interval.
The binding affinity of the most tightly bound ligand in the group selected for ligand conjugate design (Ligand 1) was estimated using data collected from a series of SPR binding experiments conducted at different ligand concentrations. To obtain the kinetic and affinity data needed to estimate the Kd, the original ligand was diluted serially with running buffer to produce seven different ligand concentrations: 1024 μM, […], 256 μM, 128 μM, 64 μM, 32 μM and 0 μM. Data were fitted using a monovalent binding model.
A total of 36 ligands were tested experimentally using surface Plasmon resonance (on a Biacore T200 instrument) to identify which of the molecules calculated to bind to Sites 1 and 2 on CD81 actually bind to a recombinant form of the protein (CD81-LEL). Twenty-six of the molecules provided a positive change in response units (RU) upon introduction to a chip containing the immobilized protein (Table A), indicating the ligands bound to the protein. The measured responses for the ligands that bound varied from 2.3 to 78.4 RU. Those ligands providing the largest responses tended to be molecules that were calculated to bind more deeply inside cavities in Site 1 (ligands 30930, 98026, 7436, 5069), Site 2 (ligands 127947, 38743) or Site 4 (ligands 78623, 16631).
Experimental analysis of ligand binding to recombinant CD81 LEL. Forty ligands calculated by AutoDock to bind to sites 1 and 2 on CD81-LEL were tested experimentally using surface Plasmon resonance as described in the Materials and Methods section. Ligand code numbers are those assigned by the National Cancer Institute. […] Because the binding experiments were performed by passing the same concentration of each ligand sequentially across the same protein coated chip using both techniques, the magnitude of the responses can be used to provide an approximate ranking of binding strength.

[3] = biological target: T3, HCV E2 binding to CD81 (Homo sapiens, UniProt P60033); experiment: DPI assay of ligands blocking HCV E2 protein binding to CD81; conditions: Table D; E2 Protein alone gives 4.1402; reduced response = blocking
T3 sequence (P60033 113-201 limits assumed): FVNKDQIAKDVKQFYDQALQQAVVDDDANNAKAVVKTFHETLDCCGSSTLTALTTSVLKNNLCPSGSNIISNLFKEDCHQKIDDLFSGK
Description: A subset of the ligands identified to bind to CD81 have been tested using Dual Polarization Interferometry (DPI) to determine if the ligands themselves are effective in blocking E2 binding to CD81. The experiments are conducted by first immobilizing one of the proteins (HCV E2 or CD81) on the chip used to perform the assay. The other protein is then introduced to the chip and the amount of binding is measured. This protein is then washed off and the protein and one of the ligands are then introduced to the chip. If the ligand blocks/interferes with the binding of the two proteins, the DPI response (measured in Radians) is reduced compared to when the protein is added alone. After the measurement is made, the protein and ligand are washed off and the next combination of the protein and a different ligand are added to the chip and the DPI response is measured. Similar experiments can be performed in which the protein is mixed with two or more ligands to see if they have a greater effect when combined.
Experiments have been conducted with either CD81 or HCV E2 immobilized on the chip. Six ligands have been tested to date.

[4] = biological target: T4, native CD81 on Raji cells (Homo sapiens, UniProt P60033); experiment: Competition assay: inhibition of FITC-labeled JS-81 anti-CD81 antibody binding to native CD81 on live Raji cells (flow cytometry); assay type: cell-based
T4 construct: endogenous in cells; host or cells: Raji (human B cell line)
T4 sequence (P60033 1-236): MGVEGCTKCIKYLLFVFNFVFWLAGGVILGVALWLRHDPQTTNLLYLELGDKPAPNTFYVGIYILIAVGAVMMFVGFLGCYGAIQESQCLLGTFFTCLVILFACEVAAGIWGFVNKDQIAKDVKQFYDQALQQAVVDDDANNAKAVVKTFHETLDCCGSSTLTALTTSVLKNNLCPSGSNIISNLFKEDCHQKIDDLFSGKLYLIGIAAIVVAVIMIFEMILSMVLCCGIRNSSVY
Text: A subset of these ligands and some of those listed in the patent have been tested to identify those ligands that bind to the correct region of the CD81 protein and for binding to native CD81 on living cells (a Raji cell line). This assay tests three concentrations of the ligand to determine if the ligand is capable of inhibiting the binding of an antibody called JS-81. This antibody is known to bind to the region of the CD81 protein we have targeted. If the ligand decreases JS-81 binding as you increase the concentration of the ligand, it is 1) binding to native CD81 on the Raji cells and 2) it is binding to the correct region of the protein.
For antibody neutralization assay Raji cells were used, a human B cell line that expressed high amounts of CD81 on the surface (data not shown). Cells were grown in RPMI medium (10% FCS, 1% penicillin/streptomycin, 1% L-glutamine, 1% non-essential amino acids, 1% sodium pyruvate, pH 7.4, at 37° C. with 5% CO2). 2×10^5 cells were incubated with or without different concentrations (50 μM, 100 μM, 400 μM and 1 mM) of indicated inhibitor for 20 min at room temperature, subsequently 1 ul (16 ng/μl) of FITC-labeled anti CD81 antibody (BD Pharmingen, 551108) was added to the cells and incubated for 20 min (antibody titration was performed to obtain a working dilution range, data not shown). Cells were washed and analyzed by flow cytometry using fluorescence-activated cell sorting (FACS) (BD FACSCalibur, software: Cell Quest Pro). Mean Fluorescence Intensity MFI was calculated using Flowjo software (TreesStar, www.flowjo.com).

O=C(OCc1ccccc1)c1ccccc1O [Benzyl salicylate, reference compound]
DPI Response (Radians), ligand added to CD81 protein [1]: 0.5818 Radians
DPI Response (Radians), ligand added to CD81 protein ([1]; listed as benzyl salicylate): 0.58 Radians

O=C(O)c1cc2cc(OCc3ccccc3)ccc2[nH]1 [Ligand 30930]
SPR Response Units [2]: 67.7 RU
DPI Binding Response (Radians), molecule added alone to CD81 [1]: 1.102 Radians
DPI Binding Response (Radians), E2 Protein added to CD81 together with ligand(s) [3]: 2.5262 Radians
Inhibition of JS-81 Binding (%) ([4]; 50 μM ligand): 0%
Inhibition of JS-81 Binding (%) ([4]; 100 μM ligand): 0%
Inhibition of JS-81 Binding (%) ([4]; 400 μM ligand): 14%

O=C(O)Cn1cnc2c(=S)nc[nH]c21 [Ligand 36914]
DPI Radians [1]: 0.1448 Radians

O=C(O)CCC1(c2ccccc2)NC(=O)NC1=O (centres unmarked) [Ligand 38743]
SPR Response Units [2]: 30.6 RU
DPI Response (Radians), ligand added to CD81 protein [1]: 0.8593 Radians

O=C(O)c1ccccc1C(=O)Nc1ccccc1[N+](=O)[O-] [Ligand 41066]
DPI Radians [1]: 0.2700 Radians

O=C(O)/C=C\C(=O)Nc1nccs1 [Ligand 80807]
DPI Radians [1]: 0.1909 Radians

Cn1c(=O)c2[nH]c(CNc3ccc(C(=O)O)cc3)nc2n(C)c1=O [Ligand 81750]
DPI Radians [1]: 0.4360 Radians

O=C(Cn1ccc(=O)[nH]c1=O)Nc1ccc(C(=O)O)c(O)c1 [Ligand 93033]
SPR Response Units [2]: 16.9 RU
DPI Response (Radians), ligand added to CD81 protein [1]: 0.7245 Radians
DPI Binding Response (Radians), molecule added alone to CD81 [1]: 0.7245 Radians
DPI Binding Response (Radians), E2 Protein added to CD81 together with ligand(s) [3]: 0.2546 Radians
Inhibition of JS-81 Binding (%) ([4]; 50 μM ligand): 0%
Inhibition of JS-81 Binding (%) ([4]; 100 μM ligand): 0%
Inhibition of JS-81 Binding (%) ([4]; 400 μM ligand): 16%

CC(C)=CCC1=C(OCC(=O)O)C(=O)c2ccccc2C1=O [Ligand 98026]
SPR Response Units [2]: 50 RU
DPI Response (Radians), ligand added to CD81 protein [1]: 1.1918 Radians
Inhibition of JS-81 Binding (%) ([4]; 50 μM ligand): 0%
Inhibition of JS-81 Binding (%) ([4]; 100 μM ligand): 0%
Inhibition of JS-81 Binding (%) ([4]; 400 μM ligand): 21%

NC(=S)Nc1cccc(Cl)c1 [Ligand 164965]
DPI Radians [1]: 0.7494 Radians
DPI Response (Radians), ligand added to CD81 protein [1]: 0.7494 Radians

B1: E2 Protein: HCV E2 envelope glycoprotein that binds CD81 (protein)
chain: QTHITGGSTAHAAAGLANLFSMGPKQDIRLINTNGSWHINRTALNCNESLNTGWVAGLLYYNKFNSSGCSERLASCRPLTDFAQGWGPISYANGSGPDQRPYCWHYPPRPCGIVPAKSVCGPVYCFTPSPVVVGTTDRSGAPTYSWGENETDVFILNNTRPPLGNWFGCTWMNSSGFTKVCGAPPCVIGGVGNNTLRCPTDCFRKHPEATYSRCGSGPWITPRCLVNYPYRLWHYPCTINYTIFKVRMYVGGVEHRLEAACNWTRGERCDLEDRDRSELSPLLLSTTQWQVLPCSFTTLPALSTGLIHLHQNIVDVQYLYGVGSSIASWAIKWDYVVLLFLLLADARVCSCLWMMLLISQAEA
DPI Binding Response (Radians), molecule added alone to CD81 [1]: 4.1402 Radians
